Reference: ChEMBL document CHEMBL1129135, “Synthesis and antitumor evaluation of paclitaxel phosphonooxymethyl ethers: a novel class of water soluble paclitaxel pro-drugs” (1996)

Key:
Type in all cases: functional
Conditions in all cases: route intraperitoneal
Mus musculus [1] = test: Compound was tested in vivo for its efficacy against the M109 murine tumor model at the dose of 200 mg/kg/inj after ip administration
Mus musculus [2] = test: Compound was tested in vivo for its efficacy against the M109 murine tumor model at the dose of 60 mg/kg/injection after ip administration (Data reported with reference to Paclitaxel)
Mus musculus [3] = test: Compound was tested in vivo for its efficacy against the M109 murine tumor model at the dose of 64 mg/kg/injection after ip administration
Mus musculus [4] = test: Compound was tested in vivo for its efficacy against the M109 murine tumor model at the dose of 44 mg/kg/injection after ip administration (Data reported with reference to Paclitaxel)

For `CC(=O)O[C@H]1C(=O)[C@@]2(C)[C@H]([C@H](OC(=O)c3ccccc3)[C@]3(O)C[C@H](OC(=O)[C@H](OCOP(=O)(O)O)[C@@H](NC(=O)c4ccccc4)c4ccccc4)C(C)=C1C3(C)C)[C@]1(OC(C)=O)CO[C@@H]1C[C@@H]2O`, the T/C (Mus musculus [1]) was 144% and the T/C (Mus musculus [2]) was 237%.

With `CCOC(=O)O[C@@H](C(=O)O[C@H]1C[C@@]2(O)[C@@H](OC(=O)c3ccccc3)[C@@H]3[C@]4(OC(C)=O)CO[C@@H]4C[C@H](OCOP(=O)(O)O)[C@@]3(C)C(=O)[C@H](OC(C)=O)C(=C1C)C2(C)C)[C@@H](NC(=O)c1ccccc1)c1ccccc1` the T/C (Mus musculus [3]) was 188% and the T/C (Mus musculus [4]) was 175%.
